Results as given in patent publication US11447485B2, “Class of bifunctional compounds with quanternary ammonium salt structure” (Beijing Showby Pharmaceutical Co., Ltd., priority 2016, dated 2022).
Read-outs that look alike come from different tables or passages of the source.

Tests used:
[1] = biological target: human recombinant M3 receptor (Homo sapiens, UniProt P20309); assay: biochemical; type: binding; conditions: for M1/M3 / M2/M3: Mx/My = Ki(y)/Ki(x)
[2] = biological target: T1, human recombinant β1 adrenoceptor (Homo sapiens, UniProt P08588); assay: cAMP accumulation, human recombinant β1 adrenoceptor; type: cell-based
T1 construct: expressed in transfected cells
T1 sequence (P08588 whole entry): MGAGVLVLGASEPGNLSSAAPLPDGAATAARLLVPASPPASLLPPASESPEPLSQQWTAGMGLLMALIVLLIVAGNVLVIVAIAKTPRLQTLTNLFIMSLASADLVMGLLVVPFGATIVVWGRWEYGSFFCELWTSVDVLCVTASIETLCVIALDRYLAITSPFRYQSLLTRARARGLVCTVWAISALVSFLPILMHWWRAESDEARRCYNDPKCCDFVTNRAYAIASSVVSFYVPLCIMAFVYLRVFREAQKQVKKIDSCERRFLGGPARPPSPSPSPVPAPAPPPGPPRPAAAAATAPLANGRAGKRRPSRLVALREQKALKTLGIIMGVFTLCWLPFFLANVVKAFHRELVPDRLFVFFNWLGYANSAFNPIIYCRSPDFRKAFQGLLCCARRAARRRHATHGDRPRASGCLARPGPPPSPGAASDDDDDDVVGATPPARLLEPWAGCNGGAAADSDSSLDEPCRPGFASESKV
Description: In order to measure the activity and selectivity of agonists to human β1 and β2 adrenoceptors, the cAMP accumulation of expressed receptors in each recombinant cell line was measured. cAMP was determined by homology radioimmunoassay, that is, cells were washed with PSB buffer solution and suspended in the buffer solution at room temperature to grow to 30000-40000 cells per well. The test compound was diluted with PSB buffer solution containing 0.1% BSA and tested at 11 gradient concentrations ranging from 100 uM to 0.1 pM. For the analysis of β1-adrenoceptor, 10 nM of ICI118551 was added to block the expression of β2-adrenoceptor in HEK293 cells. After the compound was added to the suspended cells, the scintillation plate was incubated at 37° C. for 10 minutes, the reaction was terminated with ice-cold detection buffer solution, and its radioactivity was measured after storage at 4° C. overnight.
The agonistic activity (pEC50 value) was analyzed by regression using S-type dose response model of software package (GraphPad Software, San Diego, Calif.). Selectivity was calculated from the ratio of measured cAMP of β1 and β2 adrenoceptors, which was expressed as sel. β1/β2=(EC50 (β1)/EC50 (β2)).

[3] = biological target: human recombinant M1 receptor (Homo sapiens, UniProt P11229); assay: biochemical; type: binding; conditions: for M1/M2: Mx/My = Ki(y)/Ki(x)
Chain of human recombinant M1 receptor (P11229 whole entry): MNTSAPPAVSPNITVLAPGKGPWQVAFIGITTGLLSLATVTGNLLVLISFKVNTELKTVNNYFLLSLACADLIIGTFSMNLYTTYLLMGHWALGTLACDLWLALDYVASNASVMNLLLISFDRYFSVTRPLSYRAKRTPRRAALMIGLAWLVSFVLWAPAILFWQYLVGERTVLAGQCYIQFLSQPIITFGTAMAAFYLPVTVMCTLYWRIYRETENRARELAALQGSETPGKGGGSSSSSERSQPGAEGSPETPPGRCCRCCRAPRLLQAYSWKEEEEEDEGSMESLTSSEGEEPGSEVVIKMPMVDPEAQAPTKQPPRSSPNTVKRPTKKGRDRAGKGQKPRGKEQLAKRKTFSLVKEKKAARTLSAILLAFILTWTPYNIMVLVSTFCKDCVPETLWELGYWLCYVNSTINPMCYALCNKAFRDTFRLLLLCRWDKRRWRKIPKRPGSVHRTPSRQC

[4] = biological target: human recombinant M2 receptor (Homo sapiens, UniProt P08172); assay: biochemical; type: binding
Chain of human recombinant M2 receptor (P08172 whole entry): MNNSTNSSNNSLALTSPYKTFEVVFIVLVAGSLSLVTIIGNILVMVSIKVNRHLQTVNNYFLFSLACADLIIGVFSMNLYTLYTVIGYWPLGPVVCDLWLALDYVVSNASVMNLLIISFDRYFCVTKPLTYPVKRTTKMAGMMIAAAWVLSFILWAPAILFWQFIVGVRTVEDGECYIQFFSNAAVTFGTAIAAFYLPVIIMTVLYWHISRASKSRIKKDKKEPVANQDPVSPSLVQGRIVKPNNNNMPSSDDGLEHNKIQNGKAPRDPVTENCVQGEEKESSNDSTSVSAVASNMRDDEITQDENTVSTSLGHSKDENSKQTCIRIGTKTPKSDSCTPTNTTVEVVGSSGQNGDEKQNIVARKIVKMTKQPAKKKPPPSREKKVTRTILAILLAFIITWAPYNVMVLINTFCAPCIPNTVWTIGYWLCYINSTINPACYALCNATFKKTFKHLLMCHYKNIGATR

[5] = system: tracheal smooth muscle of guinea pig; assay: Relaxation of CCh-induced constriction of isolated guinea pig tracheal smooth muscle (Experimental Example 1); conditions: in vitro; for Onset time (min) ± SD / Time for eliminating inhibition effect (min): CCh 3 × 10^−6 mol/L; for EC50: constriction induced by CCh 3 × 10^−6 mol/L, read-out: EC50 (μM) ± SD
[6] = biological target: T2, human recombinant β2 adrenoceptor (Homo sapiens, UniProt P07550); assay: cell-based; type: cell-based; conditions: for EC50: cAMP accumulation
T2 construct: expressed in transfected cells

moderate and severe COPD = conditions: phase II clinical study; cited from earlier work
[7] = 3H-QNB […], 25° C., 5 h, read-out: hM3Ki
[8] = cAMP accumulation, 10 nM ICI118551 added, HEK293 cells, read-out: EC50 (β1)
[9] = 3H-QNB […], 25° C., 5 h, read-out: hM1Ki
[10] = 3H-QNB 1.81 nmol/L, 25° C., 5 h, read-out: hM2Ki

Chain of human recombinant M3 receptor (P20309 whole entry): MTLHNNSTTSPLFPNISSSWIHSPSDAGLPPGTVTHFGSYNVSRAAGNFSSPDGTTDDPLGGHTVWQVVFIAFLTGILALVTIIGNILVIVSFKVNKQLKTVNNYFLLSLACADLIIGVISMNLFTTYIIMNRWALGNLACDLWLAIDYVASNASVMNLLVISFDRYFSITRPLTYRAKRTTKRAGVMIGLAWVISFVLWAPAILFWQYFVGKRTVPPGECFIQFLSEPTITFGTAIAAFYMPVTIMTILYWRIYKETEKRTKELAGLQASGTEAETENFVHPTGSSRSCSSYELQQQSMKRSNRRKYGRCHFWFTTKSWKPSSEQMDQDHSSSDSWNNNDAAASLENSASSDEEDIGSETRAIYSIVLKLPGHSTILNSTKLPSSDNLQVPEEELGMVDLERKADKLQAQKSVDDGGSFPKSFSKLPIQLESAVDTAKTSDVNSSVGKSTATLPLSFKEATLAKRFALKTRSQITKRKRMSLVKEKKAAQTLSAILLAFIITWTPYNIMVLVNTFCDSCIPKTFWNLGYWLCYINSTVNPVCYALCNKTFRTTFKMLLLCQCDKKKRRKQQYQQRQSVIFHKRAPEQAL

Row | Compound | Ki [1] | M1/M3 [1] | M2/M3 [1] | EC50 [2] | Ki [3] | M1/M2 [3] | Ki [4] | Onset time (min) ± SD [5] | Time for eliminating inhibition effect (min) [5] | EC50 ([5]; Cavia porcellus) | sel (β1/β2) [6] | EC50 [6] | Ki [1, 7] | EC50 [2, 8] | Ki [3, 9] | Ki [4, 10] | EC50 [5] | effect on moderate and severe COPD (moderate and severe COPD)
1 | OCc1cc([C@@H](O)CNCCC[N+]23CCC(CC2)[C@@H](OC[C@@](O)(c2ccccc2)C2CCCC2)C3)ccc1O [Compound 1, (R)-(−)-3-[(R)-2-hydroxy-2-cyclopentyl-2-phenyl]ethoxy-1-{3-[(R)-2-(3-hydroxymethyl-4-hydroxy)phenyl-2-hydroxyethylamino]propyl}-1-azabicyclo[2,2,2]octylonium bromide] | 0.561 ± 0.22 nM | 0.7653 | 0.5795 | 197 ± 87 nM | 0.733 ± 0.32 nM | 1.3206 | 0.968 ± 0.15 nM | 6.82 ± 0.30 min | more than 300 min | 0.767 ± 0.18 µM | 15.4 | 12.8 ± 4.2 nM | – | – | – | – | – | –
2 | OCc1cc([C@@H](O)CNCCCC[N+]23CCC(CC2)[C@@H](OC[C@@](O)(c2ccccc2)C2CCCC2)C3)ccc1O [Compound 3, (R)-(−)-3-[(R)-2-hydroxy-2-cyclopentyl-2-phenyl]ethoxy-1-{4-[(R)-2-(3-hydroxymethyl-4-hydroxy)phenyl-2-hydroxyethylamino]butyl}-1-azabicyclo[2,2,2]octylonium bromide] | 0.451 ± 0.18 nM | 0.5880 | 0.4808 | 160 ± 72 nM | 0.767 ± 0.16 nM | 1.2229 | 0.938 ± 0.4 nM | 5.38 ± 0.68 min | more than 300 min | 0.355 ± 0.1 µM | 15.6 | 10.3 ± 2.4 nM | – | – | – | – | – | –
3 | O=CNc1cc([C@@H](O)CNCc2c(Cl)cc(OCCC[N+]34CCC(CC3)[C@@H](OC[C@](O)(c3ccccc3)C3CCCC3)C4)cc2Cl)ccc1O.[Br-] [Compound 59, (R)-(−)-3-[(R)-2-hydroxy-2-cyclopentyl-2-phenyl]ethoxy-1-{3-[(3,5-dichloro-4-(1-{(R)-[2-hydroxy-2-(3-formamido-4-hydroxy)phenyl]ethylamino}methyl)phenoxy)propyl}-1-azabicyclo[2,2,2]octylonium bromide] | – | – | – | – | – | – | – | – | – | – | – | 0.32 ± 0.12 nM | 0.131 ± 0.022 nM | 83 ± 31 nM | 0.283 ± 0.018 nM | 2 ± 0.89 nM | 0.0165 ± 0.0075 µM | –
4 | O=CNc1cc([C@@H](O)CNCc2c(Cl)cc(OCCC[N+]34CCC(CC3)[C@@H](OC[C@](O)(c3ccccc3)C3CCCC3)C4)cc2Cl)ccc1O.[Br-] [Compound 59] | – | 0.4629 | 0.0656 | – | – | 7.0601 | – | 6.53 ± 0.66 min | more than 300 min | – | 213.4 | – | – | – | – | – | – | –
5 | COc1cc(NC(=O)CCN2CCC(OC(=O)Nc3ccccc3-c3ccccc3)CC2)c(Cl)cc1CNC[C@H](O)c1ccc(O)c2[nH]c(=O)ccc12 [TD5959] | – | – | – | – | – | – | – | – | – | – | – | – | – | – | – | – | – | good effect on moderate and severe COPD
6 | (R)-(−)-3-[(R)-2-hydroxy-2-cyclopentyl-2-phenyl]ethoxy-1-{3-[(4-(3-methyl-1-{(R)-[2-hydroxy-2-(6-hydroxy-2H-1,4-benzoxazin-3(4H)-one-8-yl)]ethylamino}ethylidene)phenoxy]propyl}-1-azabicyclo[2,2,2]octylonium bromide [Compound 63] | – | – | – | – | – | – | – | 6.19 ± 0.12 min | more than 300 min | – | 80.8 | – | 0.0198 ± 0.012 nM | 17 ± 5.8 nM | 0.0493 ± 0.021 nM | 0.323 ± 0.17 nM | 0.0155 ± 0.0078 µM | –
